SMILES strings stand for the structures. Where two headings read alike, the source gives them in different places.

Test [1] has as its target maize-derived GST (GSTI, ZmM16901) (Zea mays, UniProt P12653). To be noted: Non-Patent Document 11; cited from earlier work.
The subject of test [2] is wild-type rice plant (Nipponbare). Briefly: Sensitivity of wild-type rice (Nipponbare) to VLCFAE-inhibiting herbicides, gellan gum medium. Format: in vivo. To be noted: Oryza sativa, 168 h; for minimal effective concentration: read-out: Minimal inhibitory concentration; for IC50: read-out: I50. The method, then: Whether or not a rice plant comprising the TaQ8GTC0 gene introduced therein has VLCFAE-inhibiting herbicide resistance was determined on the basis of a difference in sensitivity of rice between transformant and wild-type. Accordingly, the sensitivity of the wild-type rice plant (Nipponbare) to VLCFAE-inhibiting herbicides used in the glutathione conjugation activity test was examined as described below.
The growth inhibition test was carried out using a gellan gum medium. Hoagland's mix and 3 g of gellan gum were suspended in 1 liter of distilled water and thoroughly dissolved therein by heating in a microwave. A fraction of the resultant (15 ml) was poured in a tubular bottle before it was cooled. When the herbicide (an acetone solution) was to be incorporated thereinto, the herbicide was simultaneously added at the time of filling of the gellan gum medium into the tubular bottle, followed by thorough mixing (final acetone concentration: 0.1%). Rice hulls were soaked in a 50-fold diluted sodium hypochlorite solution (antiformin) (Wako) for approximately 20 minutes and then thoroughly rinsed with water. Sterilized seeds were soaked in distilled water and allowed to stand at 27° C. for germination (for approximately 2 days). Germinating seeds were transferred with the sprout side up to a gellan gum medium containing herbicide (the tubular bottle). Subsequently, these samples, together with a beaker filled with distilled water, were placed in a transparent case, which was then covered with a clear plastic wrap. These samples were grown at 27° C. under fluorescent light illumination (14 hours of a light period and 10 hours of a dark period) for 1 week, the plants were sampled, and the plant heights were then measured. Inhibition of shoot growth was determined by comparison to control plant grown in the absence of herbicide and the concentration required for 50% inhibition (IC50) was determined by the Probit method.

For test [3], the system named is rice plants comprising the TaQ8GTC0 gene introduced therein. Briefly: Herbicide resistance test of rice plants comprising the TaQ8GTC0 gene, gellan gum medium, plant height. Format: in vivo. To be noted: lineage #3-13; minimal concentration (×1), ×4 and ×16 of Table 4. The protocol:
Hoagland's mix and 3 g of gellan gum were suspended in 1 liter of distilled water and thoroughly dissolved therein by heating in a microwave. A fraction of the resultant (15 ml) was injected into a tubular bottle before it was cooled (30 ml was injected into the plate). The herbicide was simultaneously added at the time of injection of the gellan gum medium into the tubular bottle or plate, followed by thorough mixing. Rice hulls were soaked in a 50-fold diluted sodium hypochlorite solution (antiformin) (Wako) for approximately 20 minutes and then thoroughly washed with water. Sterilized seeds were soaked in distilled water and allowed to stand at 27° C. for germination (for approximately 2 days). Germinating seeds were softly planted in the gellan gum medium (plate) containing 0.25 μM BS. These samples, together with a beaker filled with distilled water, were placed in a transparent case, which was then covered with a clear plastic wrap. These samples were grown at 27° C. under fluorescent light illumination (14 hours of a light period and 10 hours of a dark period) for 2 days. Thereafter, rice seeds that were determined to have BS resistance with the use of root elongation as the indicator were transferred to gellan gum media containing pyroxasulfone (tubal bottles) at the final concentrations of 10^−8, 10^−7, 10^−6, and 10^−5M, respectively. Subsequently, these samples, together with a beaker filled with distilled water, were placed in a transparent case, which was then covered with a clear plastic wrap. These samples were grown at 27° C. under fluorescent light illumination (14 hours of a light period and 10 hours of a dark period) for 4 to 5 days, and the plant heights were then measured. Inhibition of shoot growth was determined by comparison to control plants grown in the absence of pyroxasulfone and the concentration for required 50% inhibition (IC50) was determined by the Probit method.
Resistance of rice plants comprising the TaQ8GTC0 gene introduced therein to VLCFAE-inhibiting herbicides was tested in the same manner as with the pyroxasulfone resistance test described above.
FIGS. 7-1 to 7-6 show the results. In FIGS. 7-1 to 7-6, the concentration of 0 μM, the minimal concentration shown in Table 4 (×1), the concentration 4 times higher than the minimal concentration shown in Table 4 (×4), and the concentration 16 times higher than the minimal concentration shown in Table 4 (×16) are shown successively from left to right.

Test [4] concerns TaQ8GTC0 protein. Briefly: Glutathione conjugation activity of the TaQ8GTC0 protein to VLCFAE-inhibiting herbicides (HPLC). The class given is biochemical, wheat (Triticum aestivum). To be noted: 378 ng TaQ8GTC0 protein, 10 μl of 1 mM herbicide in 200 μl, 30° C., 15 minutes; mean ± standard deviation. The protocol:
All the VLCFAE-inhibiting herbicides used in this example were added to the reaction mixture as acetone solutions. Conjugation reactions to the VLCFAE-inhibiting herbicides were performed in a reaction mixture (total amount: 200 μl) containing 50 μl of 100 mM potassium phosphate buffer (pH 6.8), 10 μl of 1 mM VLCFAE-inhibiting herbicide, 20 μl of 10 mM reduced glutathione (pH 7.0), 6 μl of the TaQ8GTC0 protein (378 ng in total, PBS buffer solution) and 114 μl of PBS buffer, the reaction was conducted at 30° C. for 15 minutes, the reaction product was filtered through a […], and 50 μl of the filtered solution was injected into HPLC. HPLC analysis conditions were as described below.
Apparatus: Agilent 1100 series
Column: CAPCELL PAK C18 AQ 4.6 mm (i.d.)×250 mm (SHISEIDO)
Mobile phase: acetonitrile/distilled water=5/95 (hold for 5 min)→(4 min)→40/60 (hold for 4 min)→(4 min)→90/10 (hold for 8 min)→(1 min)→5/95 (hold for 4 min) (each solvent containing 0.5% acetic acid)
When the activity of glutathione conjugation to VLCFAE-inhibiting herbicides was analyzed, the amount of glutathione conjugates (GS conjugates) produced was determined based on the amount of VLCFAE-inhibiting herbicides decreased in the reaction solution.
In Example 1, the conjugation activity to cafenstrole was determined via quantification of the compound released by the glutathione conjugation of this herbicide. In addition, peaks of GS conjugate of other herbicides (i.e., metolachlor, alachlor, flufenacet, mefenacet, phentolazamide, indanofan, anilofos, and piperophos) were unknown. When analyzing the glutathione conjugation activities to these herbicides, accordingly, glutathione conjugation reactions were performed to produce GS conjugate in the modified conditions (i.e., more amount of enzyme was added or the conjugation reaction was conducted for longer time) in the beginning to produce glutathione conjugates (GS conjugates), and the peaks were identified with LC/MS.

In test [5] the test system is ZmGST8 (ZmQ9FQD1). The conditions noted are these: Non-Patent Document 12; cited from earlier work.
Test [6] has as its system TaQ8GTC1-R protein. Briefly: Glutathione conjugation activity of the TaQ8GTC1-R protein to CDNB (absorbance at 340 nm). Format: biochemical, wheat. To be noted: 30° C., pH 7.6, n=2. The method, then:
The glutathione conjugation activity to CDNB was assayed in a reaction mixture (1 ml in total) containing 634 μl of 100 mM potassium phosphate buffer (pH 7.6), 300 μl of 3.3 mM reduced glutathione, 33 μl of a purified enzyme (PBS solution containing 20% glycerol), and 33 μl of 30 mM CDNB (ethanol solution). First, reaction mixture except CDNB was prepared, enzyme reaction was started by the addition of CDNB, and the absorbance at 340 nm was monitored at 30° C. The enzyme activity was calculated using a molar extinction coefficient of glutathione conjugate of CDNB (GS-CDNB) (9.6 mM^−1cm^−1). The amount of GS-CDNB produced in a negative control mixture prepared with the addition of PBS containing 20% glycerol instead of the enzyme (i.e., a non-enzymatic reaction group) was designated as the amount of non-enzymatic production.

Test [7] relates to Arabidopsis thaliana plant comprising the TaQ8GTC0 gene introduced therein. Briefly: Sensitivity of Arabidopsis thaliana comprising the TaQ8GTC0 gene to herbicides on MS agar medium. Format: in vivo. The conditions noted are these: KLB-718 1-1-5; concentrations of Table 5; 22° C., 14 days. The method, then:
A medium was prepared as described below, so as to examine the pyroxasulfone resistance of the Arabidopsis thaliana plant comprising the TaQ8GTC0 gene introduced therein. At the outset, the Murashige-Skoog (MS) media (1 bag), thiamin hydrochloride (3 mg), nicotinic acid (5 mg), pyridoxin hydrochloride (0.5 mg), and sucrose (10 g) were added into a 1-liter beaker, a pH was adjusted to 5.7, the volume of the content was adjusted to 1 liter, and 8 g (0.8%) of agar was added. The resultant was autoclaved and cooled to room temperature, and pyroxasulfone (an acetone solution) was added thereto. A 30-ml fraction thereof was fractionated into a No. 2 square plate to prepare an MS medium containing pyroxasulfone at a given concentration.
Pyroxasulfone sensitivity of transgenic Arabidopsis thaliana plants was tested with the use of the medium prepared above as described below. A necessary amount of Arabidopsis thaliana dry seeds was agitated in 70% ethanol for 2 minutes and in hypochlorous acid containing 0.02% Triton-X-100 for 15 minutes, followed by washing with sterile water 10 times. Subsequently, the seeds were suspended in 1 ml of the autoclaved 0.1% agar solution, the suspension was thoroughly mixed to prepare a homogeneous solution, and a total of 30 seeds were each placed on the medium surface. The resultant was sealed with a surgical tape, allowed to stand at 4° C. for 2 days, and then transferred to 22° C. for germination.
On the basis of the concentrations above, sensitivity of the Arabidopsis thaliana plant comprising the TaQ8GTC0 gene introduced therein to VLCFAE-inhibiting herbicides was examined. The results are show in FIGS. 13 and 14. The photographs shown in FIGS. 13 and 14 were taken after the plants were grown at 22° C. for 14 days.

Setting [8] is: minimal concentration at which growth of wild-type rice is inhibited.
The mark [9] stands for this setting: shoot growth, 1 week, Probit method.

Sequence of maize-derived GST (GSTI, ZmM16901) (P12653 whole entry): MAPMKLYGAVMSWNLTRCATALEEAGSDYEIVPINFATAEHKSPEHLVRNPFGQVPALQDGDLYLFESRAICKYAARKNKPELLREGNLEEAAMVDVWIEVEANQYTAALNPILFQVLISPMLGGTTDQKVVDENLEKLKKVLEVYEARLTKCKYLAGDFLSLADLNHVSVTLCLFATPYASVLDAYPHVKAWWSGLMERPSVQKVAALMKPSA

Consider `CCc1cccc(CC)c1N(COC)C(=O)CCl` [Alachlor], for which the conjugation activity result in test [1] is “high-level conjugation activity”; in test [5] it was “does not exert conjugation activity”. Moreover, the minimal effective concentration in test [2] (setting [8]) worked out at 0.5 µM. In addition, in test [2] (setting [9]), the IC50 came to 332 nM. In addition, the “growth of rice plants comprising the TaQ8GTC0 gene on herbicide medium” value (“growth” below) in test [3] is “not affected at the minimal concentration, but the growth thereof was inhibited at the 4-fold concentration”. In addition, the “Enzyme activity (glutathione conjugation)” value (“Enzyme activity” for short) in test [4] turned out to be 1.5 ± 0.1 μmol/mg protein/15 min.
As for `COP(=S)(OC)SCC(=O)N(c1ccc(Cl)cc1)C(C)(C)C` [Anilofos], the minimal effective concentration in test [2] (setting [8]) is 0.5 µM. In addition, the IC50 in test [2] (setting [9]) worked out at 377 nM.
`O=[N+]([O-])c1ccc(Cl)c([N+](=O)[O-])c1` [CDNB, 2,4-dinitrochlorobenzene]: the “glutathione conjugation activity to CDNB” value in test [6] came out at 2.17 μmol/min/mg protein.
For `CCN(CC)C(=O)n1cnc(S(=O)(=O)c2c(C)cc(C)cc2C)n1` [Cafenstrole], the minimal effective concentration in test [2] (setting [8]) turned out to be 0.75 µM. For the same compound, in test [2] (setting [9]), the IC50 stood at 131 nM. Moreover, the “growth” value in test [3] was “the growth thereof was inhibited at the minimal concentration”. For the same compound, the “Enzyme activity” value in test [4] turned out to be 0.46 ± 0.1 μmol/mg protein/15 min.
`CCOc1cc(Cl)c(CS(=O)(=O)C2=NOC(C)(C)C2)cc1Cl` [Fenoxasulfone, 3-[(2,5-dichloro-4-ethoxybenzyl)sulfonyl]-4,5-dihydro-5,5-dimethyl-1,2-oxazole]: the minimal effective concentration in test [2] (setting [8]) was found to be 0.05 µM. For the same compound, in test [2] (setting [9]), the IC50 is 54 nM. Besides, the “growth” value in test [3] is “the growth thereof was not affected at the maximal test concentration”. For the same compound, the “Enzyme activity” value in test [4] was found to be 19.5 ± 8.4 μmol/mg protein/15 min. In test [7], the “sensitivity of the Arabidopsis thaliana plant comprising the TaQ8GTC0 gene to VLCFAE-inhibiting herbicides” value is reported as “strong resistance”.
Take `CCN(C(=O)n1nnn(-c2ccccc2Cl)c1=O)C1CCCCC1` [Fentrazamide]: in test [2] (setting [8]), the minimal effective concentration came out at 0.5 µM. For the same compound, the IC50 in test [2] (setting [9]) was found to be 46 nM. Besides, the “growth” value in test [3] was “the growth thereof was inhibited at the minimal concentration”. Also, in test [4], the “Enzyme activity” value is given as 0.93 ± 0.2 μmol/mg protein/15 min.
For the compound `CC(C)N(C(=O)COc1nnc(C(F)(F)F)s1)c1ccc(F)cc1` [Flufenacet], the minimal effective concentration in test [2] (setting [8]) came to 0.075 µM. Further, the IC50 in test [2] (setting [9]) turned out to be 42 nM. The “growth” value in test [3] was “the growth thereof was inhibited at the minimal concentration”.
In the same order, the values of `CCC1(CC2(c3cccc(Cl)c3)CO2)C(=O)c2ccccc2C1=O` (stereo not drawn) [Indanofan] are 0.25 µM, 61 nM and “the growth thereof was inhibited at the minimal concentration”.
Regarding `CN(C(=O)COc1nc2ccccc2s1)c1ccccc1` [Mefenacet], the minimal effective concentration in test [2] (setting [8]) came out at 0.75 µM. In test [2] (setting [9]), the IC50 came out at 388 nM. Moreover, in test [3], the “growth” value is listed as “not affected at the minimal concentration, but the growth thereof was inhibited at the 4-fold concentration”.
On to `CCc1cccc(C)c1N(C(=O)CCl)C(C)COC` (stereo not drawn) [Metolachlor], for which, in test [1], the conjugation activity entry is given as “does not exert conjugation activity”. For the same compound, in test [2] (setting [8]), the minimal effective concentration is 0.75 µM. Besides, the IC50 in test [2] (setting [9]) was 636 nM. The “growth” value in test [3] was “not affected at the minimal concentration, but the growth thereof was inhibited at the 4-fold concentration”. For the same compound, the “Enzyme activity” value in test [4] turned out to be 2.2 ± 0.8 μmol/mg protein/15 min.
For the compound `CCCOP(=S)(OCCC)SCC(=O)N1CCCCC1C` (stereo not drawn) [Piperophos], in test [2], the IC50 is 1310 nM and the minimal effective concentration was 2.5 µM. For the same compound, in test [3], the “growth” value is given as “the growth thereof was inhibited at the minimal concentration”.
